What all share (test): cell viability (% survival relative to DMSO control, bortezomib = 0%); higher = less cytotoxic
What all share (settings): 72 h

Assay [1] concerns BV-173. In a few lines: (§1)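 Fifteen myeloid leukaemia cell lines (10 AML, 5 CML) were seeded at a density titrated to the linear growth range. They went into 384-well plates with compounds pre-printed at 1, 10, 100, 1000 or 10000 nM in duplicate. After 72 h at 37 °C with 5% CO2, viability was read by CellTiter-Glo luminescence. Values are percent survival, with vehicle set to 100% and a 10 µM positive control to 0%, averaged over the duplicates.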

The subject of assay [2] is HEL. In a few lines:
as §1

Assay [3] has as its system ML-2. In a few lines:
as §1

Assay [4] has as its system MOLM-13. A digest of the protocol: as §1

SMILES strings stand for the structures.

`CCOC(=O)[C@H]1O[C@@H]1C(=O)N[C@@H](CC(C)C)C(=O)NCCC(C)C` [Aloxistatin]: the cell viability (as a rule, a read-out of living cells in per cent, often relative to untreated cells) in assay [1] (1 nM) turned out to be 96.7%; in assay [1] (10 nM) it was 118%; in assay [1] (100 nM), 105%; in assay [1] (1000 nM), 96.7%; in assay [1] (10000 nM) it was 91.5%; in assay [2] (1 nM), 111%. Further, the cell viability is 102% in assay [2] (10 nM); 106% in assay [2] (100 nM); 96.2% in assay [2] (1000 nM); 88.2% in assay [2] (10000 nM); 99% in assay [3] (1 nM); 86.2% in assay [3] (10 nM). Further, the cell viability in assay [3] (100 nM) was found to be 87.1%; in assay [3] (1000 nM) it was 100%; in assay [3] (10000 nM), 88.3%; in assay [4] (1 nM) it was 102%; in assay [4] (10 nM), 109%; in assay [4] (100 nM) it was 116%. Moreover, the values for the cell viability in assay [4] (1000 nM) and in assay [4] (10000 nM) were 96.1% and 62.8%, respectively.

In the case of `N[C@](CCCCB(O)O)(CCN1CCCCC1)C(=O)O` [Arginase inhibitor 1], the cell viability in assay [1] (1 nM) came out at 141%; in assay [1] (10 nM) it was 77%; in assay [1] (100 nM) it was 90.8%; in assay [1] (1000 nM), 88.5%; in assay [1] (10000 nM) it was 96.1%; in assay [2] (1 nM), 109%. Besides, the cell viability in assay [2] (10 nM) was determined as 96.7%; in assay [2] (100 nM), 101%; in assay [2] (1000 nM), 90.4%; in assay [2] (10000 nM), 95.4%; in assay [3] (1 nM), 112%; in assay [3] (10 nM), 93.9%. The cell viability in assay [3] (100 nM) came to 93.1%; in assay [3] (1000 nM), 93.4%; in assay [3] (10000 nM), 99.7%; in assay [4] (1 nM), 106%; in assay [4] (10 nM), 99.8%; in assay [4] (100 nM), 117%. For the same compound, the cell viability was determined as 74.4% in assay [4] (1000 nM) and 72% in assay [4] (10000 nM).

On to `Cc1noc2c1-c1ccccc1C(c1ccc(Cl)cc1)=N[C@H]2CC(N)=O` [CPI-0610], for which the cell viability was determined as 92.3% in assay [1] (1 nM); 87.8% in assay [1] (10 nM); 83.4% in assay [1] (100 nM); 33.5% in assay [1] (1000 nM); 10.9% in assay [1] (10000 nM); 103% in assay [2] (1 nM). In addition, the cell viability is 98.5% in assay [2] (10 nM); 114% in assay [2] (100 nM); 74.5% in assay [2] (1000 nM); 18.5% in assay [2] (10000 nM); 108% in assay [3] (1 nM); 91.2% in assay [3] (10 nM). The cell viability in assay [3] (100 nM) is 92.5%; in assay [3] (1000 nM) it was 62.9%; in assay [3] (10000 nM) it was 33.9%; in assay [4] (1 nM), 74.3%; in assay [4] (10 nM), 88.2%; in assay [4] (100 nM), 73.5%. The cell viability in assay [4] (1000 nM) worked out at 5.96%; in assay [4] (10000 nM), 3.86%.

Take `Nc1ccn([C@@H]2O[C@H](CO)[C@@H](O)[C@@H]2O)c(=O)n1` [Cytarabine]: the cell viability in assay [1] (1 nM) is 102%; in assay [1] (10 nM), 16.4%; in assay [1] (100 nM) it was 0.292%; in assay [1] (1000 nM) it was -1.03%; in assay [1] (10000 nM), 0.0249%; in assay [2] (1 nM), 104%. Also, the cell viability is 95.2% in assay [2] (10 nM); 19.6% in assay [2] (100 nM); -0.409% in assay [2] (1000 nM); 1.24% in assay [2] (10000 nM); 106% in assay [3] (1 nM); 98.5% in assay [3] (10 nM). In addition, the cell viability in assay [3] (100 nM) worked out at 32%; in assay [3] (1000 nM), 0.0645%; in assay [3] (10000 nM) it was 1.39%; in assay [4] (1 nM), 112%; in assay [4] (10 nM), 86.4%; in assay [4] (100 nM) it was 45.7%. Besides, the values for the cell viability in assay [4] (1000 nM) and in assay [4] (10000 nM) were 4.2% and 0.262%, respectively.

As to `CCOc1ccc(Cc2cc([C@@H]3O[C@H](CO)[C@@H](O)[C@H](O)[C@H]3O)ccc2Cl)cc1` [Dapagliflozin], the cell viability in assay [1] (1 nM) was 74.5%; in assay [1] (10 nM), 106%; in assay [1] (100 nM) it was 87%; in assay [1] (1000 nM), 98.2%; in assay [1] (10000 nM), 82%; in assay [2] (1 nM), 99.9%. The cell viability in assay [2] (10 nM) worked out at 102%; in assay [2] (100 nM) it was 75.6%; in assay [2] (1000 nM), 97.7%; in assay [2] (10000 nM) it was 122%; in assay [3] (1 nM), 84.8%; in assay [3] (10 nM), 111%. Moreover, the cell viability in assay [3] (100 nM) was determined as 85.1%; in assay [3] (1000 nM) it was 108%; in assay [3] (10000 nM) it was 105%; in assay [4] (1 nM), 92.8%; in assay [4] (10 nM) it was 111%; in assay [4] (100 nM), 91.1%. The values for the cell viability in assay [4] (1000 nM) and in assay [4] (10000 nM) were 103% and 121%, respectively.

As to `CCN(CC)CCN(Cc1ccc(-c2ccc(C(F)(F)F)cc2)cc1)C(=O)Cn1c(SCc2ccc(F)cc2)nc(=O)c2c1CCC2` [Darapladib], the cell viability was 100% in assay [1] (1 nM); 88.7% in assay [1] (10 nM); 94.3% in assay [1] (100 nM); 79.1% in assay [1] (1000 nM); -0.184% in assay [1] (10000 nM); 99.5% in assay [2] (1 nM). For the same compound, the cell viability is 103% in assay [2] (10 nM); 105% in assay [2] (100 nM); 91.1% in assay [2] (1000 nM); -0.527% in assay [2] (10000 nM); 102% in assay [3] (1 nM); 98.2% in assay [3] (10 nM). Moreover, the cell viability in assay [3] (100 nM) is 88.9%; in assay [3] (1000 nM) it was 88.8%; in assay [3] (10000 nM), -0.43%; in assay [4] (1 nM) it was 123%; in assay [4] (10 nM), 94.6%; in assay [4] (100 nM), 88.2%. Also, the figures for the cell viability in assay [4] (1000 nM) and in assay [4] (10000 nM) were 83.8% and -0.315%, respectively.

Values taken from the supplement of paper PMC8671470.
